Assay results reported in patent EP0269841A1, “1-Hydroxyalkyl xanthines, processes for their preparation and medicaments containing them” (SOCIETE DES PRODUITS NESTLE S.A., priority 1986, dated 1988).
Where two headings read alike, the source gives them in different places.

Test system: oreillette gauche du cobaye isolée et stimulée électriquement
Assay: In vitro inotropic (cardiotonic) activity: contraction force of isolated, electrically stimulated guinea pig left atrium
Format: cell-based
Conditions: for minimal effective concentration: read-out: Cardiotonique (concentration minimale efficace en ug/ml produisant une réponse significative)
Source text: Les composés (I) selon l'invention ont été trouvés peu toxiques et n'ont pas ou peu d'effet sur le système nerveux central. Par contre, ils se sont montrés actifs dans les test in vitro d'activité inotropique (cardiotonique). Le Tableau (IV) ci-dessous donne les résultats de ces essais.
Theophylline 15 Amrinone ^2) 100 Milrinone ^2) 0,5 IBMX^3) 0,5 • 1) Mesure de la force de contraction de l'oreillette gauche du cobaye isolée et stimulée électriquement, selon Erjavek, F. and Adamic, S., Arch. Int. Pharmacodyn. 155: 251, 1965. Une réponse est considérée comme significative lorsque la force de contraction de base est augmentée de plus de 40 %. • 2) Médicament cardiotonique selon l'état de la technique • 3) 1-méthyl-3-isobutylxanthine

[1] = significant response = basal contraction force increased by more than 40 %, isolated left atrium of guinea pig, electrically stimulated

| SMILES | minimal effective concentration [1] [µg/mL] | further results |
| --- | --- | --- |
| CCCn1c(=O)n(CCCCCO)c(=O)c2[nH]c(C)nc21 [Xanthine No. 27, 1-(5-Hydroxypentyl)-3-propyl-8-methylxanthine] | – | Cardiotonique (concentration minimale efficace en ug/ml produisant une réponse significative) (significant response = basal contraction force increased by more than 40 %, isolated left atrium of guinea pig, electrically stimulated, listed as 1): 1 µg/mL |
| CCCn1c(=O)n(CCCO)c(=O)c2[nH]c(C)nc21 [compound 8] | 4.2 | – |
| Cc1nc2c([nH]1)c(=O)n(CCCO)c(=O)n2CC(C)C [compound 12] | 0.5 | – |
| CC(C)Cn1c(=O)n(CCC(C)O)c(=O)c2[nH]cnc21 (stereo not shown) [compound 17] | 1.3 | – |
| CC(O)CCCn1c(=O)c2[nH]cnc2n(C)c1=O (stereo not shown) [compound 23] | 33.3 | – |
| CCCCn1c(=O)n(CC(C)O)c(=O)c2[nH]cnc21 (stereo not shown) [compound 6] | – | Cardiotonique (concentration minimale efficace en ug/ml produisant une réponse significative) [1]: 4,2 ug/ml |
| CCCn1c(=O)n(CCCO)c(=O)c2[nH]c(CC)nc21 [compound 9] | 2 | – |
| CCCn1c(=O)n(CCC(C)O)c(=O)c2[nH]cnc21 (stereo not shown) [compound 16] | 0.1 | – |
| CCCn1c(=O)n(CCCO)c(=O)c2[nH]cnc21 [compound 7] | 1.3 | – |
| CC(C)Cn1c(=O)n(CCC(C)O)c(=O)c2[nH]cnc21 (stereo not shown) [Xanthine No. 17, 1-(3-Hydroxybutyl)-3-isobutylxanthine] | – | Cardiotonique (concentration minimale efficace en ug/ml produisant une réponse significative) (significant response = basal contraction force increased by more than 40 %, isolated left atrium of guinea pig, electrically stimulated, listed as 3): 2 µg/mL |
| Cc1[nH]c(=O)c(C#N)cc1-c1ccncc1 [Milrinone, reference compound] | – | minimal effective concentration: 0.5 µg/mL |
| CCCn1c(=O)n(CCCCCO)c(=O)c2[nH]c(C)nc21 [compound 27] | – | Cardiotonique (concentration minimale efficace en ug/ml produisant une réponse significative) [1]: 0,3 ug/ml |
| CC(C)Cn1c(=O)n(CCCO)c(=O)c2[nH]cnc21 [compound 11] | 0.7 | – |
| CCCCn1c(=O)n(CCCO)c(=O)c2[nH]cnc21 [compound 10] | 0.4 | – |
| CCn1c(=O)n(CCC(C)O)c(=O)c2[nH]cnc21 (stereo not shown) [compound 14] | 0.8 | – |
| CCCCn1c(=O)n(CC(C)O)c(=O)c2[nH]cnc21 (stereo not shown) [Xanthine No. 6, 1-(2-Hydroxypropyl)-3-butylxanthine] | 3.3 | – |

| SMILES | minimal effective concentration [1] [µg/mL] | further results |
| --- | --- | --- |
| Cc1nc2c([nH]1)c(=O)n(CCCCO)c(=O)n2CC(C)C [compound 22] | 25 | – |
| Cn1c(=O)n(CCCCCO)c(=O)c2[nH]cnc21 [compound 25] | 6.7 | – |
| CC(C)Cn1c(=O)n(C)c(=O)c2[nH]cnc21 [IBMX, 1-méthyl-3-isobutylxanthine, reference compound] | 0.5 | – |
| CCCn1c(=O)n(CCCC(C)O)c(=O)c2[nH]cnc21 (stereo not shown) [compound 24] | 0.7 | – |
| CCCn1c(=O)n(CC(C)O)c(=O)c2[nH]c(C)nc21 (stereo not shown) [compound 5] | 0.6 | – |
| Nc1cc(-c2ccncc2)c[nH]c1=O [Amrinone, reference compound] | 100 | – |
| CCCCn1c(=O)n(CCCCO)c(=O)c2[nH]cnc21 [Xanthine No. 21, 1-(4-Hydroxybutyl)-3-butylxanthine] | – | Cardiotonique (concentration minimale efficace en ug/ml produisant une réponse significative) (significant response = basal contraction force increased by more than 40 %, isolated left atrium of guinea pig, electrically stimulated, listed as 2): 2,5 ug/ml |
| Cn1c(=O)c2[nH]cnc2n(C)c1=O [Theophylline, reference compound] | 15 | – |
| CCCCn1c(=O)n(CCCCO)c(=O)c2[nH]cnc21 [compound 21] | 2 | – |
| CCCn1c(=O)n(CCCCCO)c(=O)c2[nH]cnc21 [compound 26] | 0.2 | – |
| CC(O)CCn1c(=O)c2[nH]cnc2n(C)c1=O (stereo not shown) [compound 13] | 50 | – |
| CCn1c(=O)n(CCC(C)O)c(=O)c2[nH]c(C)nc21 (stereo not shown) [compound 15] | 0.6 | – |
| CCn1c(=O)n(CCCCO)c(=O)c2[nH]cnc21 [compound 18] | 3.3 | – |
| CCCn1c(=O)n(CCCCO)c(=O)c2[nH]cnc21 [compound 19] | 0.4 | – |
| CCCn1c(=O)n(CCCCO)c(=O)c2[nH]c(C)nc21 [compound 20] | 0.7 | – |
